From publication PMC12114796, “Self-Assembled Cannabigerol-Based Nanoparticles: Design, Synthesis, and Antiproliferative Activity” (Pharmaceutics, 2025)
Where two headings read alike, the source gives them in different places.

How the values were obtained:
[1] = system: LN229, HT-29, MSTO-211H and MeT-5A cells; test: Antiproliferative activity compared across the cell line panel; type: cell-based; conditions: Homo sapiens; all four cell lines, 72 h; read-out: GI50 values (range over the cell lines)
Description: The cell lines used in our study were purchased from ATCC (American Type Culture Collection). Specifically, we used LN-229 (ATCC CRL-2611), HT-29 (ATCC HTB-38), and MSTO-211H (ATCC CRL-2081). MeT-5A (ATCC CRL-9444), MSTO-211H (human biphasic mesothelioma), and Met-5A (human mesothelium) cells were grown in RPMI 1640 (R6504, Merck) supplemented with 2.38 g/L Hepes (H3375, Merck, St. Louis, MO, USA), 0.11 g/L pyruvate sodium (P5280, Merck), 2.5 g/L glucose (G6152, Merck), and 10% heat-inactivated fetal calf serum (FCS, F7524, Merck). HT-29 (human colorectal adenocarcinoma) cells were grown in RPMI 1640 (R6504, Merck) supplemented with 10% heat-inactivated FCS. LN229 (human glioblastoma) cells were cultured in DMEM (D2902, Merck) supplemented with 3.5 g/L glucose and 5% FCS. NaHCO3 (S5761, Merck), as indicated in the manufacturer’s instructions, 100 U/mL penicillin, 100 μg/mL streptomycin, and 0.25 μg/mL amphotericin B (A5955, Merck) were added to the culture media. The cells were maintained at 37 °C in a humidified atmosphere incubator containing 5% carbon dioxide in air.
The cell viability was analyzed by a trypan blue dye exclusion assay. […] After 72 h from the treatment, the cells were detached by trypsinization and counted by optical microscope. […]

[2] = system: HT-29 (human colorectal adenocarcinoma) cells; test: Cell viability, trypan blue dye exclusion assay (antiproliferative activity); type: cell-based; conditions: HT-29, 72 h
Description: (§1) The cell lines used in our study were purchased from ATCC (American Type Culture Collection). […] LN229 (human glioblastoma) cells were cultured in DMEM (D2902, Merck) supplemented with 3.5 g/L glucose and 5% FCS. NaHCO3 (S5761, Merck), as indicated in the manufacturer’s instructions, 100 U/mL penicillin, 100 μg/mL streptomycin, and 0.25 μg/mL amphotericin B (A5955, Merck) were added to the culture media. The cells were maintained at 37 °C in a humidified atmosphere incubator containing 5% carbon dioxide in air.
(§2) The cell viability was analyzed by a trypan blue dye exclusion assay. Briefly, 3–4 × 10^4 cells were seeded in each well of a 24-well cell culture plate and treated with test drugs or NPs at concentrations ranging from 1 to 30 nM and from 0.01 to 20 μM, respectively, after 24 of growth in standard conditions. After 72 h from the treatment, the cells were detached by trypsinization and counted by optical microscope.

[3] = system: LN229 (human glioblastoma) cells; test: as above; type: cell-based
Description: as §1, §2

[4] = system: MSTO-211H (human biphasic mesothelioma) cells; test: as above; type: cell-based; conditions: 72 h
Description: as §1, §2

[5] = system: MeT-5A (human mesothelium, non-tumorigenic) cells; test: as above; type: cell-based; conditions: 72 h
Description: as §1, §2

[6] = system: microtubules in LN229 cells; test: Confocal microscopy of microtubule status (anti-β-tubulin staining); type: cell-based, human; conditions: LN229, 4 h; Desa 3 µM, Np1b 200 µM, PTX and Np2b at indicated concentrations
Description: LN229 cells (3 × 10^4) were seeded in 4-well cell culture chamber on a glass slide and cultured up to 50–60% confluence. […] After incubation, the cells were gently washed twice with PBS, fixed with 4% formaldehyde at room temperature for 15 min, washed twice with PBS, and permeabilized with 0.1% Triton X-100 (T8787, Merck) in PBS for 5 min in the dark. Again, the cells were washed twice with PBS and incubated for 30 min in the dark with 7% FCS in PBS. […] After washing twice with PBS, 0.001 mg/mL DAPI (MBD0015, Merck) was added for 15 min, then the cells were washed with PBS, and the coverslips were mounted on glass slides using Fluoroshield^TM (F6182, Merck). […] Particle counting and size distribution were estimated using the built-in Analyze Particles plugin in Image J (Fiji).

LN229 cells = test: Cell cycle analysis by flow cytometry (propidium iodide); type: cell-based, human; conditions: LN229, 48 h
Description: A total of 2 × 10^5 LN229 cells were seeded in Petri culture plates, left to grow for 24 h in standard conditions, and then treated with CPT and Np3b at the indicated concentrations. After 48 h, the cells were harvested, centrifuged, combined with ice-cold 70% w/v ethanol, and left at 4 °C for 20 min. Then, the cells were centrifuged, and the pellet was resuspended in a final volume of 300 μL PBS containing 0.1 mg mL^−1 RNAse (R6513, Merck) and […] propidium iodide (P4170, Merck). The DNA content was quantified by a BD FACSAria III flow cytometer (BD Life Sciences) and the data were analyzed by BD FACSDiva software (version 9.0). Statistical analysis was performed by Student’s t-test.

In the case of `CCCCCc1cc(O)c(C/C=C(\C)CCC=C(C)C)c(O)c1` [CBG, Cannabigerol], the GI50 [1] is reported as 5900 to 16000 nM, the GI50 [2] is reported as 9700 ± 200 nM and the GI50 ([3]; LN-229, 72 h) is reported as 5900 ± 1300 nM. The GI50 [4] was 16000 ± 2000 nM and the GI50 [5] was 16000 ± 2000 nM.
With `CC(=O)O[C@H]1C(=O)[C@@]2(C)[C@H]([C@H](OC(=O)c3ccccc3)[C@]3(O)C[C@H](OC(=O)[C@H](O)[C@@H](NC(=O)c4ccccc4)c4ccccc4)C(C)=C1C3(C)C)[C@]1(OC(C)=O)CO[C@@H]1C[C@@H]2O` [PTX, paclitaxel] the “effect on microtubule network” value [6] was “polymerizing effect”, the GI50 [2] was 2.8 ± 0.2 nM and the GI50 ([3]; LN-229, 72 h) was 4.2 ± 0.7 nM. It also gave a GI50 [4] of 3.3 ± 0.6 nM and a GI50 [5] of 4.4 ± 0.1 nM.
`CC[C@@]1(O)C(=O)OCc2c1cc1n(c2=O)Cc2cc3ccccc3nc2-1` [CPT, camptothecin] was tested, and the “cells in G2/M phase” value (LN229 cells; 20 nM CPT (control 11.7%)) was 33.4%, the “cells in G1 phase” value (LN229 cells; 20 nM CPT (control 69.4%)) was 49.4% and the GI50 ([2]; mean ± SD, read-out: GI50) was 7.9 ± 0.8 nM. For the same compound, the GI50 ([3]; LN-229, LN229, 72 h, mean ± SD, read-out: GI50) was 7.9 ± 0.1 nM, the GI50 ([4]; mean ± SD, read-out: GI50) was 3.3 ± 1 nM and the GI50 ([5]; mean ± SD, read-out: GI50) was 7.8 ± 0.2 nM.
